# From ChEMBL document CHEMBL1156230, “Identification of phenylsulfone-substituted quinoxaline (WYE-672) as a tissue selective liver X-receptor (LXR) agonist” (J Med Chem, 2010)
# The source made the active and inactive calls. The calls are words filed in the database; no cut-off is given here.
# Tests used:
# THP-1 [1] = assay: Induction of [3H]cholesterol efflux in human THP1 cells assessed as lipid accumulation relative to T0901317; assay type: functional
# [2] = target: T1, Oxysterols receptor LXR-alpha (Homo sapiens, UniProt Q13133)
# HepG2 = assay: Agonist activity at LXR in human HepG2 cells assessed as lipid accumulation relative to T0901317
# Mus musculus [3] = assay: Antiatherosclerotic activity against high fat/high cholesterol fed LDLR-deficient mouse assessed as reduction in aortic arch lesion burden at 3 mg/kg/day administered with diet relative to control; assay type: functional, Pharyngeal arch artery; set-up: scale not given: the % may be the effect or the level left
# Mus musculus [4] = assay: Antiatherosclerotic activity against high fat/high cholesterol fed LDLR-deficient mouse assessed as reduction in aortic arch lesion burden at 0.6 mg/kg/day administered with diet relative to control; assay type: functional, Pharyngeal arch artery; set-up: scale not given: the % may be the effect or the level left
# [5] = Plasma concentration in high fat/high cholesterol fed LDLR-deficient mouse at 0.6 mg/kg, qd administered with diet for 8 weeks measured after 3 hrs of last dose; assay type: ADME, organism-based; set-up: dose 0.6 mg/kg; details: po
# THP-1 [6] = assay: Induction of [3H]cholesterol efflux in human THP1 cells assessed as lipid accumulation; assay type: functional, cell-based
# [7] = target: T2, Peroxisome proliferator-activated receptor delta (Homo sapiens) (UniProt Q03181); assay: Binding affinity to PPARdelta
# T2 sequence (whole entry): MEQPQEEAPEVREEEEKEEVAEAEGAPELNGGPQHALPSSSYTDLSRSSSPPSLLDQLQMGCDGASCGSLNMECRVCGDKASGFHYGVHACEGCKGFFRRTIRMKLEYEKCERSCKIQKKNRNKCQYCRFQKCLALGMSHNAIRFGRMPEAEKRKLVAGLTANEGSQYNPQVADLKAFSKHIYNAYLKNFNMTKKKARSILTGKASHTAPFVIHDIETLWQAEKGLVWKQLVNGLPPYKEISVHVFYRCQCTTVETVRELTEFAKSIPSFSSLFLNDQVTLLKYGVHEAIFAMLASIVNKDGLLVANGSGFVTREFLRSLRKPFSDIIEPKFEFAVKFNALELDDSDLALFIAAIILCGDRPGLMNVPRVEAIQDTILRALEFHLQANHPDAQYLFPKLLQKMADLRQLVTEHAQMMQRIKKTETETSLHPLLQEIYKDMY
# [8] = target: Oxysterols receptor LXR-beta (Homo sapiens, UniProt P55055)
# [9] = target: T1, Oxysterols receptor LXR-alpha; remark: listed apart in the source
# [10] = target: T3, Glucocorticoid receptor (Homo sapiens) (UniProt P04150); assay: Binding affinity to glucocorticoid receptor
# T3 sequence (whole entry): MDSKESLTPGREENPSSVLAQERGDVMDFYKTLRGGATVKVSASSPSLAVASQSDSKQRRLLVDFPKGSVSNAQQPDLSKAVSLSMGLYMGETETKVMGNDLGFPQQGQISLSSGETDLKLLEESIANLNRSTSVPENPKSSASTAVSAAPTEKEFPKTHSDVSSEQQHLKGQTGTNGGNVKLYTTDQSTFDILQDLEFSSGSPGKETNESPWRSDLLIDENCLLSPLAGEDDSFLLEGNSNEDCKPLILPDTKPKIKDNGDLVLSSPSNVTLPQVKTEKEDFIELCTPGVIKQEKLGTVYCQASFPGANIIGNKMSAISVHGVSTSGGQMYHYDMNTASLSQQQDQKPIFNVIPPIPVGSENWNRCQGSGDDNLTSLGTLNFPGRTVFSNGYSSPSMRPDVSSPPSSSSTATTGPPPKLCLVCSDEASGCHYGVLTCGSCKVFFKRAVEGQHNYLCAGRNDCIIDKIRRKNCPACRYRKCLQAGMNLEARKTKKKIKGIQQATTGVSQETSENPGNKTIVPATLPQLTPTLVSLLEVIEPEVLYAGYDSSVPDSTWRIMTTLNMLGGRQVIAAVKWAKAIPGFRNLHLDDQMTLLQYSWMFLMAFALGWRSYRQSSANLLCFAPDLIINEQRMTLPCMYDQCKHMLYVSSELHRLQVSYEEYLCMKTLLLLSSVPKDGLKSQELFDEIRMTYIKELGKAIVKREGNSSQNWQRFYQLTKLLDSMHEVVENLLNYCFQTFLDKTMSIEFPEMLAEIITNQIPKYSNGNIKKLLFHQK
# [11] = target: T4, Oxysterols receptor LXR-alpha (Homo sapiens, UniProt Q13133); assay: Displacement of [3H]T0901317 from human LXRalpha ligand binding domain
# T4 sequence (Q13133 whole entry): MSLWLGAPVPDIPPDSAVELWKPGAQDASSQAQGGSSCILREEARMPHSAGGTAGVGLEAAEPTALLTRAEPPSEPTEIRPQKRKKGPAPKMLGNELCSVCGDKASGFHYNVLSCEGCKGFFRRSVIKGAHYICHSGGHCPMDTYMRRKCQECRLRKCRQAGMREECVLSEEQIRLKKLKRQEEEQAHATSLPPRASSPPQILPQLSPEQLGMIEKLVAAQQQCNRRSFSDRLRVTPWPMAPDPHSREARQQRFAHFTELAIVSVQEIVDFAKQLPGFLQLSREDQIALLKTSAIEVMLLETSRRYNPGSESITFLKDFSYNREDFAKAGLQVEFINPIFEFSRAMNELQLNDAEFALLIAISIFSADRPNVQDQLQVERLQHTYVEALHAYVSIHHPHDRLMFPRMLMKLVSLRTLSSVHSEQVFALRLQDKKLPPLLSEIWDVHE
# [12] = Half life in C57 mouse at 10 mg/kg, po; assay type: ADME, organism-based; set-up: dose 10 mg/kg, route oral; details: in vivo
# [13] = target: T5, Nuclear receptor subfamily 1 group I member 2 (Homo sapiens, UniProt O75469); assay: Binding affinity to PXR
# T5 sequence (O75469 whole entry): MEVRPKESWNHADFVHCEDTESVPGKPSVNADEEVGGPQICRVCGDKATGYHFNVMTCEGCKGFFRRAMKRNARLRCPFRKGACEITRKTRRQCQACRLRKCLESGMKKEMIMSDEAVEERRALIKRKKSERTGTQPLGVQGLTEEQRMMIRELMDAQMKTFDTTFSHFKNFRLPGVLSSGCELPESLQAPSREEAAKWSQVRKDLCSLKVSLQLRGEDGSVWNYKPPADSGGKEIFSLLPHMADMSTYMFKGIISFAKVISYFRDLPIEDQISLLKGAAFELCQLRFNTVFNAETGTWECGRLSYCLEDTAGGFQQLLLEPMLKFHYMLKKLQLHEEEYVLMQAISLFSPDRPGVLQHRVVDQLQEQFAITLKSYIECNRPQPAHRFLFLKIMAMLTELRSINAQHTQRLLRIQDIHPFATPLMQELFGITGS
# THP-1 [14] = assay: Induction of [3H]cholesterol efflux in human THP1 cells
# Mus musculus [15] = assay: Antiatherosclerotic activity against high fat/high cholesterol fed LDLR-deficient mouse assessed as Lipc gene regulation at 0.6 mg/kg administered with diet for 7 days by Experion chip analysis; assay type: functional, organism-based; set-up: dose 0.6 mg/kg
# Mus musculus [16] = assay: Antiatherosclerotic activity against high fat/high cholesterol fed LDLR-deficient mouse assessed as pltp gene regulation at 3 mg/kg administered with diet for 7 days by Experion chip analysis; assay type: functional, organism-based; set-up: dose 3 mg/kg
# Sequence of Oxysterols receptor LXR-beta (P55055 whole entry): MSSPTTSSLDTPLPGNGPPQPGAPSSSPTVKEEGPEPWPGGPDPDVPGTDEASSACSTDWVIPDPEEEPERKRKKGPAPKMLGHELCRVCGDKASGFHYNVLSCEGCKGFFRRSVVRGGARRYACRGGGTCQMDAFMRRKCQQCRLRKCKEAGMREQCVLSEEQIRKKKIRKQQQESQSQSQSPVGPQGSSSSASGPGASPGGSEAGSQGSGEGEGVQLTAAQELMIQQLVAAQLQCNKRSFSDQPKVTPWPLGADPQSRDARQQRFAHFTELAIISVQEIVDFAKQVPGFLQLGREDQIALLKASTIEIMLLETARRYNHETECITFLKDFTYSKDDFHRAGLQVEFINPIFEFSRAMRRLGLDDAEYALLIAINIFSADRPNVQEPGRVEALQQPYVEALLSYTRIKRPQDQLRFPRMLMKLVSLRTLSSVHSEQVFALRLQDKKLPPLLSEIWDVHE
EC50 [2],concentration at 3 h [5],EC50 (THP-1 [6]),Activity [7],EC50 [8],EC50 [9],Activity [10],IC50 [11],half-life [12],Activity [13],Compound,Efficacy (THP-1 [1]),Efficacy (HepG2),Activity (Mus musculus [3]),Activity (Mus musculus [4]),Activity (THP-1 [14]),Activity (Mus musculus [15]),Activity (Mus musculus [16])
1700 nM,1020 ng/mL,72 nM,inactive,580 nM,> 1000 nM,inactive,> 1000 nM,> 20 h,Not Active,Cc1nc2c(C(F)(F)F)cccc2nc1-c1ccc(-c2cccc(S(C)(=O)=O)c2)cc1,60%,7%,51%,20%,Dose-dependent effect,,
,,,,,,,,,,O=C(O)Cc1cccc(OCCCN(Cc2cccc(C(F)(F)F)c2Cl)CC(c2ccccc2)c2ccccc2)c1,,,,,,Active,Active
